Patent publication US9315496B2, “Benzopyrone derivative and use thereof” (HUAZHONG UNIVERSITY OF SCIENCE & TECHNOLOGY, priority 2011, dated 2016)
Like-named read-outs stand apart in the source and are kept apart here.

Assays:
Catalepsy assay = format: in vivo; conditions: both sexes, Kunming (KM), mouse, in vivo; mice, po
Procedure: Healthy mice of Kunming breed (with half male and half female, (22±2)g) were provided by Qinglongshan Animal Cultivation Center, Nanjing.
Instruments: self-made bar-grabbing apparatus: stainless steel bar in mice box, which was 0.3 cm in diameter and […].
Corresponding solvent double-distilled water was administered intragastrically to the negative control group and the model group, corresponding positive drugs were administered intragastrically to the positive drug groups (a small amount of acetic acid was first added and then double-distilled water was added when dissolving), and corresponding dosages of compounds were administered intragastrically to the compound groups for each dosage, with the volume for intragastric administration as 0.1 ml/10 g. At 30 min, 60 min, 90 min after the intragastric administration, the two forepaws of the mice were gently placed on the bars (which were 20 cm in length, 0.3 cm in diameter, and 5.5 cm above the bench), and the hindpaws of the animals were placed on the bottom of the box. The durations for the mice to maintain the posture with the two forepaws on the bars were recorded, and 30 s of spasticity without moving was considered as the positive response. In the case the forepaws of the mice were not put down persistently, the observation was terminated at 60 s. The numbers of animals with positive response in each of the compound dosage groups were counted.

in vivo = conditions: both, mouse, po
Procedure: KM mice (half male and half female) were randomly divided into several groups (with 2-5 mice in each group), which were respectively the 2000 mg/kg groups for each compound, and the solvent group. 0.2 ml/10 g were administered intragastrically. The death of the animals in 3 days were observed. (In the case 3 or more animals survived in 3 days without notable abnormity in their life states, the observation was continued until the assay was completed in 7 days. In the case 3 or more animals died in 3 days, the median lethal dose method was used to determine the LD50).
0.2 ml/10 g were administered intragastrically, and the death of the animals in 1-3 days were observed.

KM mice = experiment: Apomorphine induced clambering assay of mice; format: in vivo; conditions: for ED50: Mus musculus, po, apomorphine 1 mg/kg sc
Procedure: Healthy KM mice (male, with body weight of 18-22 g) were provided by Qinglongshan Animal Cultivation Center, Nanjing.
Test positive drugs: haloperidol, clozapine, risperidone, olanzapine, aripiprazole, ziprasidone, quetiapine.
Apomorphine provided by Sigma Company was dissolved in 0.9% NaCl (containing 0.1% vitamin C) before use, and was freshly formulated before use.
Corresponding solvent double-distilled water was administered intragastrically to the negative control group and the model group, corresponding positive drugs were administered intragastrically to the positive drug groups (a small amount of acetic acid was first added and then double-distilled water was added when dissolving), and corresponding dosages of compounds were administered intragastrically to the compound groups for each dosage, with the volume for intragastric administration as 0.1 ml/10 g. 1 hour after the intragastric administration, apomorphine was subcutaneously injected (1 mg/kg), with the volume as 0.1 ml/10 g. After the injection of apomorphine, the mice were immediately put into the clambering cages. After 5 min of adaptation, the behaviors of the mice at 10-11, 20-21, and 30-31 min after the injection of apomorphine were observed and scored. Scoring criteria: 4 paws on the floor was scored as 0; 2 forepaws on the cage was scored as 1; and 4 paws on the cage was scored as 2.

dopamine D2 receptor = dopamine D2 receptor (Rattus norvegicus, UniProt P61169); experiment: D2 receptor binding assay (3H-Spiperone, rat brain striatum membrane); conditions: for affinity for D2 receptor (in words): in vitro receptor binding assay; for inhibition at 10 µM: read-out: D2 inhibition %
Procedure: Rats were sacrificed by cervical dislocation on ice. Brain striatum was rapidly taken, and 2 brain striatums were combined into a centrifuge tube, to which 3 ml of buffer (0.05 M Tris-HCl buffer, containing NaCl 120 mM, KCl 5 mM, MgCl2 1 mM, CaCl2 1 mM) was added, homogenization was conducted for 3-4 s at level 4 for four times, and then 5 ml of buffer was then added. The weight of the homogenized tubes were adjusted using a balance, and centrifugation was conducted at 12000 r, 4° C. for 20 min. The supernatant was discarded, and 3 ml of buffer was added (0.05 M Tris-HCl buffer, containing NaCl 120 mM, KCl 5 mM, MgCl2 1 mM, CaCl2 1 mM). Vortex mixer was used for blending, and then 5 ml of buffer was added (0.05 M Tris-HCl buffer, containing NaCl 120 mM, KCl 5 mM, MgCl2 1 mM, CaCl2 1 mM). Centrifugation was conducted (repeated 3 times). After the centrifugations, the supernatant was discarded, and the pellets were stored at −80° C. for future use.
Beckman LS-6500 Multi-function Liquid Scintillation Counter was used.
(1) The prepared membrane was first applied with appropriate amount of homogenized liquid, and homogenizer was used for evenly dispersing. 15 tubes were mixed into a 100 ml container, and appropriate amount of homogenized liquid was added to give 50 ml of membrane suspension, which was reserved for future use.
(2) 100 μL of membrane preparation and 100 μL of buffer were added into each reaction tube.
(3) 100 μL of homogenized liquid was added into the total binding tube (TB), 100 μL of Butaclamol (final concentration 10^−5 M) was added into the non-specific binding tube (NB), and 100 μL of the test compound (final concentration 10^−5 M) was added into the specific binding tube (SB) for each compound.
(5) Each of the reaction tubes was incubated at 37° C. for 20 min. After the reaction was completed, the bound ligands were rapidly filtered under reduced pressure, and the ice-chilled assay buffer was used for adequate washing. The filter was taken out and put into a 3 ml scintillation vial, and 2 ml of toluene scintillation solution was added and blended.
(6) The scintillation vials were put into Liquid Scintillation Counter for counting. Inhibitory rate(1%)=(Total binding tube cpm−compound cpm)/(Total binding tube cpm−non-specific binding tube cpm)×100%
Each assay for the compounds was conducted in duplicate.

5-HT2C receptor = 5-HT2C receptor (Rattus norvegicus, UniProt P08909); experiment: 5HT2C receptor binding assay ([3H]-mesulergine, rat brain striatum membrane); conditions: for inhibition at 10 µM: read-out: 5HT2C inhibition %
5-HT1A receptor = biological target: T1, 5-HT1A receptor (Rattus norvegicus, UniProt P19327); experiment: 5HT1A receptor binding assay (3H-8-OH-DPAT, rat brain striatum membrane); conditions: for IC50: cells marked ^a; for IC50 / inhibition at 10 µM: 3H-8-OH-DPAT, rat brain striatum membrane; for affinity for 5-HT1A receptor (in words): in vitro receptor binding assay; for inhibition at 10 µM: test compound final concentration 10^−5 M
T1 sequence (P19327 1-422): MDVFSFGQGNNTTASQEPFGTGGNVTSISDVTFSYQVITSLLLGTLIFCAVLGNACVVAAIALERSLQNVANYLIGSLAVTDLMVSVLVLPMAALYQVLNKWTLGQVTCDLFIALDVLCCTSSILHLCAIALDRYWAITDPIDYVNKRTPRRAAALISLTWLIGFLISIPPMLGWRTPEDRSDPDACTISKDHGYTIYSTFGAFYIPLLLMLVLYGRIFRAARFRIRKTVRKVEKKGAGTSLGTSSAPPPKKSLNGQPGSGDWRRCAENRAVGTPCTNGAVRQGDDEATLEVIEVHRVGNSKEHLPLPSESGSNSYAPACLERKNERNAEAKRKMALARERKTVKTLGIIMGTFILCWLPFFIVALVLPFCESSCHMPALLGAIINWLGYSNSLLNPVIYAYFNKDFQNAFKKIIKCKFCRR
Procedure: Incubation at 37° C. was conducted for 10 min, the weight of the tubes were adjusted using a balance after incubation. […] Centrifugation was conducted and repeated 3 times.

D3 receptor = biological target: T2, D3 receptor (Homo sapiens, UniProt P35462); experiment: D3 receptor assay ([3H]-Spiperone, HEK-293 cells); format: binding; conditions: for inhibition at 10 µM: final concentration 10 μmol/L, [3H]-Spiperone, HEK-293 cells; for affinity for D3 receptor (in words): in vitro receptor binding assay
T2 construct: expressed in transfected cells; host or cells: HEK-293
Procedure: After the cells were centrifuged at 1000 rpm for 5 min, the supernatant was discarded, and the cell pellet was collected and stored in a −20° C. fridge for reservation. It was re-suspended with Tris-Cl (pH 7.4) in the assay.
Tris was divided into aliquots by Genetimes Technology Inc.
Competitive binding test for receptors: 20 μl of each of the test compounds and 20 μl of the radioactive ligand together with 160 μl of the receptor proteins were added into the reaction tubes, and the final concentrations of the test compound and the positive drug were all 10 μmol/L. After 50 min of incubation in 30° C. water bath, the tubes were immediately moved to ice bath to terminate the reactions. GF/C glass fiber filter papers were used for rapid sucking filtration on a Millipore cell sample collector, elution buffer (50 mM Tris-HCl, PH 7.4) was applied for 3 ml×3 times, and microwave was applied for 4-5 min for drying. The filter papers were moved into 0.5 ml centrifuge tubes, and 500 μl of lipid-soluble scintillation solution was added. The tubes were allowed to stand still for over 30 min in dark, and the intensities of radioactivity were measured by a counter.

mice of Kunming breed = experiment: MK-801 induced high activity in mice; format: in vivo; conditions: for ED50: Mus musculus, 1.5 h, po, MK-801 0.1 mg/kg ip, spontaneous activity in 90 min
Procedure: Healthy mice of Kunming breed (with half male and half female, (20±2)g) were provided by Qinglongshan Animal Cultivation Center, Nanjing.
Subsequently, the spontaneous activities of the mice of each group in 90 min were measured.

5-HT2A receptor = 5-HT2A receptor (Rattus norvegicus, UniProt P14842); experiment: 5HT2A receptor binding assay ([3H]-Ketanserin, rat brain striatum membrane); conditions: for IC50: cells marked ^a; for IC50 / inhibition at 10 µM: [3H]-Ketanserin, rat brain striatum membrane; for inhibition at 10 µM: test compound final concentration 10^−5 M, read-out: 5HT2A inhibition %
[1] = in vitro receptor binding assay
[2] = test compound final concentration 10^−5 M, [3H]-mesulergine, rat brain striatum membrane

Sequence of dopamine D2 receptor (P61169 whole entry): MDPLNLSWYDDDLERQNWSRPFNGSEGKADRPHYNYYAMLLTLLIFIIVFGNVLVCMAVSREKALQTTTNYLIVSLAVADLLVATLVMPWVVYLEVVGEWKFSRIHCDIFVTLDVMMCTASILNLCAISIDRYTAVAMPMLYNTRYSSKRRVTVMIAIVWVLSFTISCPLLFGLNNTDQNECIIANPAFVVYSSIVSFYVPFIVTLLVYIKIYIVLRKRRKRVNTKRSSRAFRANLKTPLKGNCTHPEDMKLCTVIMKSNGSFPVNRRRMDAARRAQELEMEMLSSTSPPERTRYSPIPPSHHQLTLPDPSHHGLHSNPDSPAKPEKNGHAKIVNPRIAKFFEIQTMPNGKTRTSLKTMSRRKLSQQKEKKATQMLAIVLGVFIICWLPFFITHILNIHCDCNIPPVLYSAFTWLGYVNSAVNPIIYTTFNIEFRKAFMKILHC
T2 sequence (P35462 whole entry): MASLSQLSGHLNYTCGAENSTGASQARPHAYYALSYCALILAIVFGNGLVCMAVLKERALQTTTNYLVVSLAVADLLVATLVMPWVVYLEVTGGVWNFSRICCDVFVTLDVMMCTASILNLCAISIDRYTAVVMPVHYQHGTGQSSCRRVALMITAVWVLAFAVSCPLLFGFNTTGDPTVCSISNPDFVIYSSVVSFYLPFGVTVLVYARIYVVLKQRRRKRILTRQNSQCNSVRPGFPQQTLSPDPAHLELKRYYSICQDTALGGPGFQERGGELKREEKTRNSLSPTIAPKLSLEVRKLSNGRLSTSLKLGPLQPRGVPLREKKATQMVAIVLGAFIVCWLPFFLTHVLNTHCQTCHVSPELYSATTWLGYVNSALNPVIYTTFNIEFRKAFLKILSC
Sequence of 5-HT2C receptor (P08909 33-460): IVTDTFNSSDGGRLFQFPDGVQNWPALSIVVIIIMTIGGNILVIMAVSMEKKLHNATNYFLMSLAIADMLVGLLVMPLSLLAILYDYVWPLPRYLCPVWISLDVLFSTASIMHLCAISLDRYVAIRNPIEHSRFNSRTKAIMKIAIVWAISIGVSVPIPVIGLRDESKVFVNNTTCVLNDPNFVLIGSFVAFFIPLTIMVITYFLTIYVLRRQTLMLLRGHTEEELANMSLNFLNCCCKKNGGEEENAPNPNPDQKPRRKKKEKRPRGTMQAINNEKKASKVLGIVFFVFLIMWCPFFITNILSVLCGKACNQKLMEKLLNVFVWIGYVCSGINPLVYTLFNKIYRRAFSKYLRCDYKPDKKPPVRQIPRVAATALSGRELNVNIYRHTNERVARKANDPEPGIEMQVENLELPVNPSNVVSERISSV
Sequence of 5-HT2A receptor (P14842 whole entry): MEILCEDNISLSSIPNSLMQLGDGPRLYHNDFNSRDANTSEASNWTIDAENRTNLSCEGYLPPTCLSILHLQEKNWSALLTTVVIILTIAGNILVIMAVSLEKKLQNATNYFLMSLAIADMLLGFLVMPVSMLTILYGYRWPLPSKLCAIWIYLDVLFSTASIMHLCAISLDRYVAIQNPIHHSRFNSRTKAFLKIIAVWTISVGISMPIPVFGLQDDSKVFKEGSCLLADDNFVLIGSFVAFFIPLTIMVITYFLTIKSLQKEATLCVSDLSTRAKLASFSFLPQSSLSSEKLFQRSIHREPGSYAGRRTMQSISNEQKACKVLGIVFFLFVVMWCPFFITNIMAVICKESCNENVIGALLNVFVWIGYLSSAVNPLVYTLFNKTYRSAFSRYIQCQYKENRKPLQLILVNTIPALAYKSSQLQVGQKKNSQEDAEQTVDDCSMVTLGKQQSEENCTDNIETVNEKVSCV

With `O=c1ccc2ccc(OCCCCN3CCC(c4noc5cc(F)ccc45)CC3)cc2o1` [Compound 1, 7-(4-(4-(3-(6-fluoro-benzisoxazole)-1-piperidyl)-n-butoxy))-2H-benzopyran-2-one] the ED50 (Catalepsy assay) was 1.41 mg/kg, the LD50 (in vivo) was > 2000 mg/kg and the ED50 (KM mice) was 0.32 mg/kg. For the same compound, the “affinity for D2 receptor (in words)” value (dopamine D2 receptor) was “relatively stronger affinities”, the inhibition at 10 µM (dopamine D2 receptor) was 128% and the “affinity for 5-HT2C receptor (in words)” value (5-HT2C receptor; [1]) was “lower affinities”. For the same compound, the inhibition at 10 µM (5-HT2C receptor) was 88%, the IC50 (5-HT1A receptor) was 9.61 nM and the “affinity for 5-HT1A receptor (in words)” value (5-HT1A receptor) was “relatively stronger affinities”. For the same compound, the inhibition at 10 µM (D3 receptor) was 97.6%, the “affinity for D3 receptor (in words)” value (D3 receptor) was “relatively stronger affinities” and the ED50 (mice of Kunming breed) was 0.61 mg/kg. For the same compound, the IC50 (5-HT2A receptor) was 1.53 nM and the “affinity for 5-HT2A receptor (in words)” value (5-HT2A receptor; [1]) was “relatively stronger affinities”.
With `Cc1cc(=O)oc2cc(OCCCCN3CCC(c4noc5cc(F)ccc45)CC3)ccc12` [Compound 6, 7-(4-(4-(3-(6-fluoro-benzisoxazole)-1-piperidyl)-n-butoxy))-4-methyl-2H-benzopyran-2-one] the ED50 (Catalepsy assay) was 0.68 mg/kg, the LD50 (in vivo) was > 2000 mg/kg and the ED50 (KM mice) was 0.11 mg/kg. For the same compound, the “affinity for D2 receptor (in words)” value (dopamine D2 receptor) was “relatively stronger affinities”, the inhibition at 10 µM (dopamine D2 receptor) was 101% and the “affinity for 5-HT2C receptor (in words)” value (5-HT2C receptor; [1]) was “lower affinities”. For the same compound, the inhibition at 10 µM (5-HT2C receptor) was 91.4%, the IC50 (5-HT1A receptor) was 3.52 nM and the “affinity for 5-HT1A receptor (in words)” value (5-HT1A receptor) was “relatively stronger affinities”. For the same compound, the inhibition at 10 µM (D3 receptor) was 100%, the “affinity for D3 receptor (in words)” value (D3 receptor) was “relatively stronger affinities” and the ED50 (mice of Kunming breed) was 0.32 mg/kg. For the same compound, the IC50 (5-HT2A receptor) was 0.39 nM and the “affinity for 5-HT2A receptor (in words)” value (5-HT2A receptor; [1]) was “relatively stronger affinities”.
For `Cc1cc2c(s1)Nc1ccccc1N=C2N1CCN(C)CC1` [olanzapine, reference compound], the ED50 (KM mice) was 0.11 mg/kg.
With `Cc1cc(=O)oc2c(Cl)c(OCCCN3CCN(c4nsc5ccccc45)CC3)ccc12` [Compound 22, 7-(3-(4-(3-(1,2-benzisothiazole)-1-piperazinyl)-n-propoxy))-4-methyl-8-chloro-2H-benzopyran-2-one] the melting point was 162 to 164 °C, the “affinity for D2 receptor (in words)” value (dopamine D2 receptor) was “relatively stronger affinities” and the inhibition at 10 µM (dopamine D2 receptor) was 112%. For the same compound, the “affinity for 5-HT2C receptor (in words)” value (5-HT2C receptor) was “lower affinities”, the inhibition at 10 µM (5-HT2C receptor; [2]) was 99.8% and the IC50 (5-HT1A receptor) was 12.8 nM. For the same compound, the “affinity for 5-HT1A receptor (in words)” value (5-HT1A receptor) was “relatively stronger affinities”, the inhibition at 10 µM (D3 receptor) was 104% and the “affinity for D3 receptor (in words)” value (D3 receptor) was “relatively stronger affinities”. The “affinity for 5-HT2A receptor (in words)” value (5-HT2A receptor) was “relatively stronger affinities” and the IC50 (5-HT2A receptor) was 6.88 nM.
With `O=c1cc(-c2ccccc2)c2ccc(OCCCN3CCN(c4nsc5ccccc45)CC3)cc2o1` [Compound 12, 7-(3-(4-(3-(1,2-benzisothiazole)-1-piperazinyl)-n-propoxy))-4-phenyl-2H-benzopyran-2-one] the “affinity for D2 receptor (in words)” value (dopamine D2 receptor) was “relatively stronger affinities”, the inhibition at 10 µM (dopamine D2 receptor) was 124% and the “affinity for 5-HT2C receptor (in words)” value (5-HT2C receptor) was “lower affinities”. For the same compound, the inhibition at 10 µM (5-HT2C receptor; [2]) was 93.4%, the IC50 (5-HT1A receptor) was 127 nM and the “affinity for 5-HT1A receptor (in words)” value (5-HT1A receptor) was “relatively stronger affinities”. For the same compound, the inhibition at 10 µM (D3 receptor) was 103%, the “affinity for D3 receptor (in words)” value (D3 receptor) was “relatively stronger affinities” and the “affinity for 5-HT2A receptor (in words)” value (5-HT2A receptor) was “relatively stronger affinities”. It also gave an IC50 (5-HT2A receptor) of 9.26 nM.
In the case of `O=c1cc(C(F)(F)F)c2ccc(OCCCCN3CCN(c4nsc5ccccc45)CC3)cc2o1` [Compound 18, 7-(4-(4-(3-(1,2-benzisothiazole)-1-piperazinyl)-n-butoxy))-4-(trifluoromethyl)-2H-benzopyran-2-one], the melting point is reported as 93 to 95 °C, the “affinity for D2 receptor (in words)” value (dopamine D2 receptor) is reported as “relatively stronger affinities” and the inhibition at 10 µM (dopamine D2 receptor) is reported as 113%. For the same compound, the “affinity for 5-HT2C receptor (in words)” value (5-HT2C receptor) was “lower affinities”, the inhibition at 10 µM (5-HT2C receptor; [2]) was 77.6% and the IC50 (5-HT1A receptor) was 6.19 nM. For the same compound, the “affinity for 5-HT1A receptor (in words)” value (5-HT1A receptor) was “relatively stronger affinities”, the inhibition at 10 µM (D3 receptor) was 103% and the “affinity for D3 receptor (in words)” value (D3 receptor) was “relatively stronger affinities”. For the same compound, the “affinity for 5-HT2A receptor (in words)” value (5-HT2A receptor) was “relatively stronger affinities” and the IC50 (5-HT2A receptor) was 0.79 nM.
`CCc1cc(=O)oc2cc(OCCCCN3CCN(c4nsc5ccccc45)CC3)ccc12` [Compound 28, 7-(4-(4-(3-(1,2-benzisothiazole)-1-piperazinyl)-n-butoxy))-4-ethyl-2H-benzopyran-2-one] showed a melting point of 110 to 112 °C, an inhibition at 10 µM (dopamine D2 receptor) of 58.8% and an inhibition at 10 µM (5-HT1A receptor) of 11%. The inhibition at 10 µM (5-HT2A receptor) was 56.1%.
`Cc1cc(=O)oc2cc(OCC(O)CN3CCC(c4noc5cc(F)ccc45)CC3)ccc12` (centres unmarked) [Compound 32, 7-(3-(4-(3-(6-fluoro-benzisoxazole)-1-piperidyl)-2-hydroxylpropoxy))-4-methyl-2H-benzopyran-2-one] showed a melting point of 183 to 185 °C, an inhibition at 10 µM (dopamine D2 receptor) of 62.6% and an inhibition at 10 µM (5-HT1A receptor) of 103%. It also gave an inhibition at 10 µM (5-HT2A receptor) of 157%.
`Cc1cc(=O)oc2cc(OCCCN3CCN(c4nsc5ccccc45)CC3)ccc12` [Compound 8, 7-(3-(4-(3-(1,2-benzisothiazole)-1-piperazinyl)-n-propoxy))-4-methyl-2H-benzopyran-2-one] gave a melting point of 113 to 115 °C, an inhibition at 10 µM (dopamine D2 receptor) of 73.8% and an inhibition at 10 µM (5-HT1A receptor) of 98.5%. For the same compound, the inhibition at 10 µM (5-HT2A receptor) was 88.6%.
For `Cc1nc2n(c(=O)c1CCN1CCC(c3noc4cc(F)ccc34)CC1)CCCC2` [risperidone, reference compound], the LD50 (in vivo) was 82.1 mg/kg, the “improvement of apomorphine induced clambering symptoms (in words)” value (KM mice) was “effectively improve” and the ED50 (KM mice) was 0.015 mg/kg. The “improvement of MK-801 induced high activity (in words)” value (mice of Kunming breed; compared to the model group) was “significantly improve”.
